Source: the supplement of paper PMC4862054
Values belong to the compound of their own block, whether it stands above or below them.

Experiments:
CAL-85-1 [1] = settings: 72 h
How it was run: (§1)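 For viability, cells received 2.5 µl CellTiter-Blue for 2 h at 37 °C and fluorescence was read at 560/590 nm. Before this, breast cancer cell lines in 20 µl suspension had been incubated for 72 h on 384-well plates pre-loaded with compound dissolved in 5 µl medium. EC50 was obtained from a percent-inhibition dose-response fit censored at the highest concentration, after normalisation of each plate to vehicle and a positive kill control; rows with a zero drug sensitivity score were discarded.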

DU-4475 = settings: 72 h
How it was run: as §1

CAL-51 [2] = settings: 72 h
How it was run: as §1

MDA-MB-468 [3] = settings: 72 h
How it was run: as §1

BT-549 [4] = settings: 72 h
How it was run: as §1

Hs578T = settings: 72 h
How it was run: as §1

SK-BR-3 [5] = settings: 72 h
How it was run: as §1

HDQ-P1 [6] = assay: normalised response (% of control), CellTiter-Glo; higher = more viable cells (100 = DMSO, 0 = benzethonium chloride kill control); settings: incubation time: 72 h
How it was run: (§2)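 In 384-well plates holding compound at 5 concentrations in 10-fold steps over a 10,000-fold range specific to each compound, breast cancer cell lines were seeded as 20 µl suspension and incubated 72 h. CellTox Green fluorescence was measured at 485/520 nm, after which CellTiter-Glo luminescence was measured following 10 min at room temperature. Plate signals were normalised to 0.1 % DMSO (100) and a positive kill control (0), and each value is the normalised signal at a single concentration.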

MDA-MB-468 [7] = assay: as above; settings: incubation time: 72 h
How it was run: as §2

HCC1143 = assay: as above; settings: incubation time: 72 h
How it was run: as §2

BT-549 [8] = assay: as above; settings: incubation time: 72 h
How it was run: as §2

BT-474 [9] = assay: as above; settings: incubation time: 72 h
How it was run: as §2

SK-BR-3 [10] = settings: 72 h; remark: listed apart in the source
How it was run: (§3)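 Per-plate normalisation used 0.1 % DMSO and a positive kill control. Breast cancer cell lines (20 µl suspension) were seeded into 384-well plates containing compound at 5 concentrations in 10-fold steps across a compound-specific 10,000-fold range, incubated for 72 h, and read first for CellTox Green fluorescence (485/520 nm), then for CellTiter-Glo luminescence. EC50 was fitted from the dose-response curves and censored at the top concentration.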

HCC1599 [11] = settings: 72 h
How it was run: as §3

CAL-120 = settings: 72 h
How it was run: as §3

MFM-223 = settings: 72 h
How it was run: as §3

CAL-85-1 [12] = settings: 72 h; remark: listed apart in the source
Experimental: (§4)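 Drug sensitivity and resistance testing (DSRT) of breast cancer cell lines in 384-well plates, 5 concentrations in 10-fold dilutions over a compound-specific 10,000-fold range. After 72 h, cytotoxicity was read by CellTox Green fluorescence and viability by CellTiter-Glo luminescence (multiplexed), normalised to DMSO and benzethonium chloride controls. EC50 is the inflection point of the fitted dose-response curve (bottom asymptote free, so it can be relative for partial curves) and is censored at the highest tested concentration. Rows with DSS 0 (no meaningful response) were excluded.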

CAL-51 [13] = settings: 72 h; remark: listed apart in the source
Experimental: as §4

HDQ-P1 [14] = settings: 72 h
How it was run: as §1

HCC1599 [15] = settings: 72 h; remark: listed apart in the source
How it was run: as §1

BT-474 [16] = settings: 72 h
How it was run: as §1

MDA-MB-436 [17] = settings: 72 h
How it was run: as §1

MCF-10A = settings: 72 h
How it was run: as §3

CAL-85-1 [18] = settings: 72 h; remark: listed apart in the source
How it was run: as §3

HDQ-P1 [19] = settings: 72 h; remark: listed apart in the source
How it was run: as §3

CAL-148 = settings: 72 h
How it was run: as §3

MDA-MB-436 [20] = settings: 72 h; remark: listed apart in the source
How it was run: as §3

EC50, CellTiter-Blue viability (MDA-MB-468 [3]): 44.5 nM
EC50, CellTiter-Blue viability (BT-549 [4]): 23.1 nM
Structure (SMILES): CCN(CCCOc1ccc2c(Nc3cc(CC(=O)Nc4cccc(F)c4)[nH]n3)ncnc2c1)CCOP(=O)(O)O [Barasertib]
EC50, CellTiter-Blue viability (CAL-85-1 [1]): 9.39 nM
EC50, CellTiter-Blue viability (DU-4475): 375 nM
EC50, CellTiter-Blue viability (CAL-51 [2]): 37.9 nM
EC50, CellTiter-Blue viability (Hs578T): 12.5 nM

Structure (SMILES): Cn1c(CCCC(=O)O)nc2cc(N(CCCl)CCCl)ccc21 [Bendamustine]
EC50, CellTiter-Blue viability (SK-BR-3 [5]): > 10000 nM

Structure (SMILES): Cn1c(CCCC(=O)O)nc2cc(N(CCCl)CCCl)ccc21 [Bendamustine] (1000 nM)
normalised response (HDQ-P1 [6]): 102%
normalised response (MDA-MB-468 [7]): 117%
normalised response (HCC1143): 106%
normalised response (BT-549 [8]): 92.4%
normalised response (BT-474 [9]): 101%

EC50, CellTiter-Glo (SK-BR-3 [10]): 254 nM
EC50, CellTiter-Glo (HCC1599 [11]): 165 nM
Structure (SMILES): C=C(c1ccc(C(=O)O)cc1)c1cc2c(cc1C)C(C)(C)CCC2(C)C [Bexarotene]

Structure (SMILES): C=C(c1ccc(C(=O)O)cc1)c1cc2c(cc1C)C(C)(C)CCC2(C)C [Bexarotene] (1000 nM)
normalised response (HDQ-P1 [6]): 104%
normalised response (MDA-MB-468 [7]): 103%
normalised response (HCC1143): 102%
normalised response (BT-549 [8]): 102%
normalised response (BT-474 [9]): 87.8%

Structure (SMILES): COc1cc2nccc(Oc3ccc(NC(=O)C4(C(=O)Nc5ccc(F)cc5)CC4)cc3)c2cc1OC [Cabozantinib] (100 nM)
normalised response (HDQ-P1 [6]): 97.6%
normalised response (MDA-MB-468 [7]): 96.7%
normalised response (HCC1143): 92.2%
normalised response (BT-549 [8]): 96.5%
normalised response (BT-474 [9]): 87.7%

Structure (SMILES): CN(C)/N=N/c1[nH]cnc1C(N)=O [Dacarbazine]
EC50, CellTiter-Glo (CAL-120): > 10000 nM

Structure (SMILES): CN(C)/N=N/c1[nH]cnc1C(N)=O [Dacarbazine] (1000 nM)
normalised response (HDQ-P1 [6]): 95.4%
normalised response (MDA-MB-468 [7]): 117%
normalised response (HCC1143): 103%
normalised response (BT-549 [8]): 101%
normalised response (BT-474 [9]): 101%

Structure (SMILES): Cc1ccc(-n2nc(C(C)(C)C)cc2NC(=O)Nc2ccc(OCCN3CCOCC3)c3ccccc23)cc1 [Doramapimod]
EC50, CellTiter-Blue viability (CAL-85-1 [1]): 27.3 nM
EC50, CellTiter-Glo (MFM-223): 2800 nM

Structure (SMILES): Cc1ccc(-n2nc(C(C)(C)C)cc2NC(=O)Nc2ccc(OCCN3CCOCC3)c3ccccc23)cc1 [Doramapimod] (1000 nM)
normalised response (HDQ-P1 [6]): 89.1%
normalised response (MDA-MB-468 [7]): 87.5%
normalised response (HCC1143): 95.2%
normalised response (BT-549 [8]): 99.6%
normalised response (BT-474 [9]): 86.1%

EC50, CellTiter-Blue viability (SK-BR-3 [5]): 4990 nM
EC50, CellTiter-Blue viability (HCC1599 [15]): 103 nM
EC50, CellTiter-Blue viability (MDA-MB-468 [3]): 1510 nM
EC50, CellTiter-Blue viability (BT-474 [16]): 1750 nM
EC50, CellTiter-Blue viability (MDA-MB-436 [17]): 840 nM
EC50, CellTiter-Glo (SK-BR-3 [10]): 3440 nM
EC50, CellTiter-Glo (MDA-MB-436 [20]): 7110 nM
Structure (SMILES): C#Cc1cccc(Nc2ncnc3cc(OCCOC)c(OCCOC)cc23)c1 [Erlotinib]
EC50, CellTox Green (CAL-85-1 [12]): 1590 nM
EC50, CellTox Green (CAL-51 [13]): 3160 nM
EC50, CellTiter-Blue viability (CAL-85-1 [1]): 754 nM
EC50, CellTiter-Blue viability (HDQ-P1 [14]): 90.2 nM
EC50, CellTiter-Glo (MCF-10A): 96 nM
EC50, CellTiter-Glo (CAL-85-1 [18]): 761 nM
EC50, CellTiter-Glo (HDQ-P1 [19]): 28.7 nM
EC50, CellTiter-Glo (CAL-120): 9090 nM
EC50, CellTiter-Glo (CAL-148): 881 nM
